Measurements from patent publication US5420140A, “Difluorinated quinolones useful for treating bacterial infections” (Bouchara S.A., priority 1991, dated 1995).
Converted amounts (≈) assume the structure as drawn.

Experiments:
[1] = system: Streptococcus faecalis ATCC 8043; experiment: Determination of MIC and MBC by microdilution method, Streptococcus faecalis ATCC 8043; assay type: cell-based; conditions: Enterococcus faecalis; for MBC: ATCC8043, S. faecalis ATCC 8043, read-out: Minimal bactericidal concentration (MBC); for MIC: ATCC8043, S. faecalis ATCC 8043, Mueller-Hinton broth, 18 hours at 37°, read-out: Minimal inhibitory concentration (MIC)
Protocol: (§1) The compound have been tested towards 7 reference strains:
Streptococcus faecalis ATCC 8043
(§2) The preparation of these mother liquors has been performed and vary depending on the molecules as a function of the solubility criterions. Inoculation has been done by adding in each will, 10 μl of a dilution in saline of 18 hours old broth in a brain-heart broth, such as each well contains about 10^6 bacterias/ml. […]

[2] = system: Acinetobacter Baumanii ATCC 17904; experiment: Determination of MIC and MBC by microdilution method, Acinetobacter; assay type: cell-based; conditions: Acinetobacter baumannii; for MIC: ATCC17904, 18 h, Acinetobacter Baumanii ATCC 17904, Mueller-Hinton broth, 18 hours at 37°, read-out: Minimal inhibitory concentration (MIC); for MBC: ATCC17904, Acinetobacter Baumanii ATCC 17904, read-out: Minimal bactericidal concentration (MBC)
Protocol: The compound have been tested towards 7 reference strains: […]
(§3) The determination of minimal inhibitory concentrations (MIC) has been performed using a microdution method (microplates and inoculator Dynatech) in liquid medium (MUELLER-HINTON broth) under a volume of 100 μl and for a range of concentrations from 128 to 0.06 mg/l, prepared from a mother liquor of antibiotics titrating 512 mg/l. The preparation of these mother liquors has been performed and vary depending on the molecules as a function of the solubility criterions. Inoculation has been done by adding in each will, 10 μl of a dilution in saline of 18 hours old broth in a brain-heart broth, such as each well contains about 10^6 bacterias/ml.
(§4) The Minimal Inhibitory Concentrations are read as the first concentration of antibiotic which will not give a growth macroscopically detectable after 18 hours incubating at 37°.

[3] = system: Staphylococcus aureus ATCC 25923; experiment: Determination of MIC and MBC by microdilution method, Staphylococcus aureus ATCC 25923; assay type: cell-based; conditions: Staphylococcus aureus; for MIC: ATCC25923, 18 h, S. aureus ATCC 25923, Mueller-Hinton broth, 18 hours at 37°, read-out: Minimal inhibitory concentration (MIC); for MBC: ATCC25923, S. aureus ATCC 25923, read-out: Minimal bactericidal concentration (MBC)
Protocol: as §1
Staphylococcus aureus ATCC 25923
as §3, §4

[4] = system: Pseudomonas aeruginosa ATCC 22853; experiment: Determination of MIC and MBC by microdilution method, Pseudomonas aeruginosa ATCC 22853; assay type: cell-based; conditions: Pseudomonas aeruginosa; for MIC: ATCC22853, 18 h, P. aeruginosa ATCC 22853, Mueller-Hinton broth, 18 hours at 37°, read-out: Minimal inhibitory concentration (MIC); for MBC: ATCC22853, P. aeruginosa ATCC 22853, read-out: Minimal bactericidal concentration (MBC)
Protocol: as §1
Pseudomonas aeruginosa ATCC 22853
as §2

[5] = system: Escherichia coli ATCC 25922; experiment: Determination of MIC and MBC by microdilution method, Escherichia coli ATCC 25922; assay type: cell-based; conditions: Escherichia coli, ATCC25922, E. coli ATCC 25922; for MIC: Mueller-Hinton broth, 18 hours at 37°, read-out: Minimal inhibitory concentration (MIC); for MBC: read-out: Minimal bactericidal concentration (MBC)
Protocol: as §1
Escherichia coli ATCC 25922
as §3, §4

S. aureus CB-951 = experiment: Determination of MIC and MBC by microdilution method, S. aureus CB-951; assay type: cell-based, Staphylococcus aureus; conditions: Staphylococcus aureus, erythromycinolincomycino, pefloxacino resistant; for MIC: CB951, 18 h, S. aureus CB-951, methicillino, Mueller-Hinton broth, 18 hours at 37°, read-out: Minimal inhibitory concentration (MIC); for MBC: CB951, S. aureus CB-951, methicillino, read-out: Minimal bactericidal concentration (MBC)
Protocol: as §1
Staphylococcus aureus CB 951
as §3, §4

Row | MIC [1] [µg/mL] | MIC [2] [µg/mL] | MIC [3] [µg/mL] | MIC [4] [µg/mL] | MIC [5] [µg/mL] | MIC (S. aureus CB-951) [µg/mL] | Structure (SMILES) | MBC [1] [µg/mL] | MBC [2] [µg/mL] | MBC [3] [µg/mL] | MBC [4] [µg/mL] | MBC [5] [µg/mL] | MBC (S. aureus CB-951) [µg/mL]
1 | > 16 | 4 (≈ 7.23 µM) | 2 (≈ 3.61 µM) | > 16 | > 16 | 16 (≈ 28.9 µM) | CCn1cc(C(=O)O)c(=O)c2cc(F)c(N3CCC(CNC(=O)Nc4ccc(Cl)c(Cl)c4)CC3)c(F)c21 [Compound 14, 7-[4-(3,4-dichlorophenyl)aminocarbonylaminomethylpiperidinyl-1] 6,8-difluoro 1-ethyl] | > 16 | 8 (≈ 14.5 µM) | 8 (≈ 14.5 µM) | > 16 | > 16 | > 16
2 | 4 (≈ 8.02 µM) | 0.06 (≈ 0.12 µM) | 0.06 (≈ 0.12 µM) | > 16 | > 16 | 0.25 (≈ 0.501 µM) | CCn1cc(C(=O)O)c(=O)c2cc(F)c(N3CCC(CNC(=O)Nc4ccc(C)cc4)CC3)c(F)c21 [Compound 12] | 4 (≈ 8.02 µM) | 0.06 (≈ 0.12 µM) | 0.06 (≈ 0.12 µM) | > 16 | > 16 | 1 (≈ 2.01 µM)
3 | > 16 | 0.12 (≈ 0.216 µM) | 0.12 (≈ 0.216 µM) | > 16 | > 16 | 1 (≈ 1.8 µM) | CCOC(=O)c1ccc(NC(=O)NCC2CCN(c3c(F)cc4c(=O)c(C(=O)O)cn(CC)c4c3F)CC2)cc1 [Compound 15, 7-[4-(4-ethoxycarbonylphenyl)aminocarbonylaminomethylpiperidinyl-1] 6,8-difluoro 1-ethyl] | > 16 | 0.25 (≈ 0.449 µM) | 0.12 (≈ 0.216 µM) | > 16 | > 16 | 2 (≈ 3.59 µM)
4 | 2 (≈ 5.22 µM) | 2 (≈ 5.22 µM) | 0.5 (≈ 1.3 µM) | 8 (≈ 20.9 µM) | 2 (≈ 5.22 µM) | 4 (≈ 10.4 µM) | NCC1CCN(c2c(F)cc3c(=O)c(C(=O)O)cn(CCF)c3c2F)CC1 [Compound 3, 7-(4-aminomethylpiperidinyl-1) 6,8-difluoro 1-fluoroethyl 4-oxo 1,4-dihydroquinoleinyl-3 carboxylic acid] | 4 (≈ 10.4 µM) | 4 (≈ 10.4 µM) | 1 (≈ 2.61 µM) | 16 (≈ 41.7 µM) | 2 (≈ 5.22 µM) | 8 (≈ 20.9 µM)
5 | 25 (≈ 51.6 µM) | 0.3 (≈ 0.619 µM) | 0.15 (≈ 0.31 µM) | 3 (≈ 6.19 µM) | 0.7 (≈ 1.44 µM) | 0.3 (≈ 0.619 µM) | CCn1cc(C(=O)O)c(=O)c2cc(F)c(N3CCC(CNC(=O)Nc4ccccc4)CC3)c(F)c21 [Compound 10, 7-[(4-Phenylaminocarboxamidomethyl)piperidinyl-1] 6,8-difluoro 1-ethyl 4-oxo 1,4-dihydroquinoleinyl-3 carboxylic acid] | > 25 | 0.7 (≈ 1.44 µM) | 0.3 (≈ 0.619 µM) | 6 (≈ 12.4 µM) | 0.7 (≈ 1.44 µM) | 1.5 (≈ 3.1 µM)
6 | > 16 | 0.06 (≈ 0.119 µM) | 0.12 (≈ 0.239 µM) | > 16 | > 16 | 0.25 (≈ 0.498 µM) | CCn1cc(C(=O)O)c(=O)c2cc(F)c(N3CCC(CNC(=O)Nc4cccc(F)c4)CC3)c(F)c21 [Compound 13, 7-[4-(3-fluorophenyl)aminocarbonylaminomethylpiperidinyl-1] 6,8-difluoro 1-ethyl] | > 16 | 0.06 (≈ 0.119 µM) | 0.25 (≈ 0.498 µM) | > 16 | > 16 | 0.5 (≈ 0.995 µM)
7 | 8 (≈ 19 µM) | 0.25 (≈ 0.593 µM) | 0.5 (≈ 1.19 µM) | > 16 | 8 (≈ 19 µM) | 1 (≈ 2.37 µM) | CCC(=O)NCC1CCN(c2c(F)cc3c(=O)c(C(=O)O)cn(CC)c3c2F)CC1 [Compound 7, 7-[(4-propionylaminomethyl)piperidinyl-1] 6,8-difluoro 1-ethyl 4-oxo 1,4-dihydroquinoleinyl-3 carboxylic acid] | 8 (≈ 19 µM) | 0.5 (≈ 1.19 µM) | 0.51 (≈ 1.21 µM) | > 16 | 8 (≈ 19 µM) | 1 (≈ 2.37 µM)
